One compound from US20250326815A1, “STAPLE-CONTAINING POLYPEPTIDES AND APPLICATION THEREOF” (Soter Biopharma Pte. Ltd., priority 2021, published 2025) can be followed below.

A short description of data set [1]: Plasma stability assay (PLS), mouse. It is filed as in vitro ADME. As to conditions: pH 7.4, 37° C., read-out: PLS (mouse) T1/2. The method, then: Stability of the assay compound in normal mouse plasma was studied.
1. Before the assay, the coagulated frozen plasma was thawed in a 37° C. water bath. The plasma was centrifuged at 4000 rpm for 5 minutes. If there were blood clots, the blood clots were removed. The pH value was adjusted to 7.4±0.1.
2. Preparation of assay compound solution: An assay compound was dissolved in DMSO to prepare a 100 μM solution.
3. 98 μL of blank control plasma was added to 2 μL of the assay compound solution (100 μM), so that the final concentration of the mixed solution reached 2 μM. The mixed solution was incubated in a 37° C. water bath.
4. 100 μL of H3PO4 solution and 800 μL of stop solution (a solution of 200 ng/ml tolbutamide and 200 ng/ml labetalol in 100% methanol) were added at each time point (0, 10, 30, 60 and 120 min), respectively, to precipitate proteins, and mixed thoroughly.
5. The sample was centrifuged at 4000 rpm for 20 min. 100 μL of supernatant from each well was taken for LC-MS/MS analysis.

A short description of data set [2]: Plasma stability assay (PLS), human. It is filed as in vitro ADME. As to conditions: pH 7.4, 37° C., read-out: PLS (human) T1/2.

In the case of `CC(C)C[C@H](NC(=O)[C@H](CC(C)C)NC(=O)[C@H](Cc1c[nH]c2ccccc12)NC(=O)[C@H](CCC(=O)O)NC(=O)[C@@H](NC(=O)[C@H](Cc1ccccc1)NC(=O)[C@H](CCC(=O)O)NC(=O)[C@@H]1CCCCNC(=O)CN(C(=O)COCCOCCNC(=O)COCCOCCNC(=O)CC[C@H](NC(=O)CCCCCCCCCCCCCCCCCCC(=O)O)C(=O)O)CC(=O)NCCCC[C@H](NC(=O)[C@H](CCC(=O)O)NC(=O)[C@H](CC(=O)O)NC(=O)[C@H](CC(C)C)NC(=O)[C@H](Cc2ccc(O)cc2)NC(=O)[C@H](CCCCN)NC(=O)[C@H](CO)NC(=O)[C@H](Cc2ccc(O)cc2)NC(=O)[C@H](CC(=O)O)NC(=O)[C@H](CO)NC(=O)[C@@H](NC(=O)[C@H](Cc2ccccc2)NC(=O)[C@@H](NC(=O)CNC(=O)[C@H](CCC(N)=O)NC(=O)C(C)(C)NC(=O)[C@@H](N)Cc2c[nH]cn2)[C@@H](C)O)[C@@H](C)O)C(=O)N[C@@H](CCCCN)C(=O)N[C@@H](C)C(=O)N1)C(C)C)C(=O)N[C@@H](CCC(=O)O)C(=O)NCC(=O)NCC(=O)N1CCC[C@H]1C(=O)N[C@@H](CO)C(=O)N[C@@H](CO)C(=O)NCC(N)=O` [WX001], the half-life at 2 μM in data set [1] and in data set [2] was more than 4.82 h in each case.
